Reference: patent publication US20260234180A1, “AMINO ACID DERIVATIVE, PREPARATION METHOD THEREFOR, AND PHARMACEUTICAL COMPOSITION FOR TREATING HEPATITIS, COMPRISING SAME” (priority 2021, published 2026)

What was measured:
[1] = biological target: T1, NTCP (Na+ taurocholate cotransporting peptide), HepG2-hNTCP-C4 cell line (Homo sapiens, UniProt Q14973); test: Inhibition of binding between FITC-labelled PreS1 and NTCP expressing cell line, flow cytometry; settings: for relative fluorescence intensity compared to Comparative Example 1 (LCA): compound 50 µM, 20 nM PreS1, 4° C., 2 hours, lower = more inhibited binding
T1 construct: expressed in transfected cells; host or cells: HepG2-hNTCP-C4 (HepG2 cells expressing human NTCP)
T1 sequence (Q14973 1-349): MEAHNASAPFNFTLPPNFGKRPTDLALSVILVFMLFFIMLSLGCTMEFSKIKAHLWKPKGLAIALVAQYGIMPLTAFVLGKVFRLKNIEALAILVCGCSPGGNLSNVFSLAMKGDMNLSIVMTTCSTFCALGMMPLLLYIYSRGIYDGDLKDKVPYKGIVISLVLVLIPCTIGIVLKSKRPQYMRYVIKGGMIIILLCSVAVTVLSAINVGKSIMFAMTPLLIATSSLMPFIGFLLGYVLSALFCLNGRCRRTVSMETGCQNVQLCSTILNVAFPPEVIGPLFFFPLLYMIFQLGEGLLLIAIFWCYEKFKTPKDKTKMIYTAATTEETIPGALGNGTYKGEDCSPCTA
Protocol: HepG2-hNTCP-C4 cell line, a cell line expressing NTCP, was seeded in a 6 well plate at a density of 2×10^5/well and incubated at 4° C. for 30 minutes when the confluency reached 80% after overnight incubation for 2 days. Thereafter, 20 nM PreS1 (Myr-GTNL […]-Lys(FITC) (SEQ ID NO: 1)) and the compounds in Example 1, Examples 38 to 56 or the compound in Comparative Example 1 were treated by diluting in culture media at 4° C. at a concentration of 50 µM respectively, and the media was suctioned after 2 hours, followed by washing 3 times with 4° C. PBS. In order to take the cells off from the plate, 500 μl of 0.5 mM EDTA PBS solution was treated, and then incubation was performed at 37° C. for 15 minutes to check whether the cells fell off through an optical microscope. After taking off the cells by pipetting, the cells were collected in a 1.5 ml tube and centrifuged (4000 rpm, 4° C., 3 min). After suctioning the supernatant, the pellet was washed 3 times with 4° C. PBS, and then green fluorescence was measured via flow cytometry. In this case, taurocholic acid (TCA), a compound known as a substrate of NTCP to reduce the entry of HBV or HDV, was used as a positive control group.
In the graph at the top of FIG. 1, black (1) and red (2) indicate a negative control group with no treatment and an HBV-induced group (HBV preS1) solely treated with PreS1, respectively. Blue (HBV preS1+HBV entry inhibitor) (3) is the fluorescence value for each of Examples or Comparative Examples, evaluated that the closer to the negative control group, the more inhibited the binding between PreS1 and the NTCP cell line.
The experimental method was the same as in the Experimental Example 1-1, and 20 nM PreS1 and each compound were treated at 4 concentrations (0.2 μM, 2 μM, 10 μM, 50 μM).
With an expectation that there is a structure-activity relationship among compounds composed of bile acid and amino acids, for each of bile acids in Comparative Example 1 (lithocholic acid, LCA), Comparative Example 2 (ursodeoxycholic acid, UDCA), Comparative Example 3 (cholic acid, CA), Comparative Example 4 (hyodeoxycholic acid, HDCA), Comparative Example 5 (deoxycholic acid, DCA), and Comparative Example 6 (chenodeoxycholic acid, CDCA), an evaluation experiment was conducted on an ability to inhibit the binding between PreS1 and NTCP expressing cell lines, and also for Examples 1 (LCA-Ile) and Example 44 (LCA-Val) as well as the compounds in Example 2 (UDCA-Ile), Example 3 (UDCA-Val), Example 6 (CA-Ile), Example 7 (CA-Val), Example 8 (HDCA-Ile), Example 9 (HDCA-Val), Example 10 (DCA-Ile), Example 11 (DCA-Val), Example 14 (CDCA-Ile), and Example 15 (CDCA-Val) in which bile acid parts (lithocholic acid) of Example 1 (LCA-Ile) and Example 44 (LCA-Val) were substituted with other types of bile acids in Comparative Examples 2 to 6, an evaluation experiment was conducted on an ability to inhibit the binding between PreS1 and NTCP expressing cell lines. The experimental method was the same as in the Experimental Example 1-1, and 18 compounds in the Comparative Examples 1 to 6, Examples 1 to 3, Examples 6 to 11, Examples 14 to 15, and Example 44 were treated at a concentration of 50 µM along with 20 nM PreS1.
In FIG. 9, an evaluation experiment was conducted to check a degree of inhibiting the binding between PreS1 and NTCP expressing cell lines for compounds in Examples 4 to 5, Examples 12 to 13, Examples 16 to 17, and Comparative Examples 2 (ursodeoxycholic acid, UDCA), Comparative Examples 5 (deoxycholic acid, DCA), and Comparative Examples 6 (chenodeoxycholic acid, CDCA) according to the present disclosure. The experimental method was the same as the Experimental Example 1-1.
In the Experimental Examples 1-4, it was determined whether there is additionally concentration dependence for Example 4 (UDCA-Trp), a compound with good inhibitory ability. […]

HBV virus = test: HBV infection of HepG2-NTCP cells, HBeAg ELISA analysis; type: cell-based, hepatitis B virus (HBV); settings: 20 μM, O.D. 450 nm
Protocol: Specifically, the HepG2-NTCP cell line was cultured on a 6-well plate, incubation was performed overnight, HBV inhibitors were treated at a concentration of 20 μM, and the positive control Myrcludex-B (MyrB) was treated at a concentration of 200 nM, followed by culture for 24 hours. After HBV infection into the cells to make HBV 3000 genome equivalent per ml/cell (Geq/cell), the cell culture medium was replaced (medium changing, MC) a day after the viral infection to remove the virus unattached to cell membranes. In order to measure an amount of virus that entered the cell, medium changing (MC) was performed once more 4 days after viral infection. 2 days after replacement, HBeAg ELISA analysis was performed using a supernatant, and Southern blot analysis was performed with cell pellets.
HBeAg ELISA analysis was performed using an HBeAg ELISA kit (sanbio, Wantai HBeAg ELISA, cat #WB-2496) for the supernatant obtained by the method in Experimental Example 4-1.
First, a negative control group (Mock), positive control group (MyrB), and samples according to the present disclosure were loaded, by 50 μl each to be triplicate, onto a 96-well plate coated with capture Ab. In this case, Example 1 (LCA-ILE), Example 44 (LCA-Val), Example 52 (LCA-Tyr), Example 51 (LCA-Ser), Example 55 (LCA-Glu), Example 2 (UDCA-Ile), Example 3 (UDCA-Val), Example 25 (LCA-Val-Trp), Example 10 (DCA-Ile), Comparative Example 1 (LCA), and Comparative Example 2 (UDCA) were used as the sample.
The HRP-conjugated detection antibody was loaded into each well by 50 μl, followed by a reaction at 37° C. for 30 minutes. Washing buffer (1×PBS, 0.5% Tween20) was added by 200 μl, and washing was performed 5 times. 50 μl of chromogen solution A and 50 μl of chromogen solution B were added to each well, and a reaction was carried out in the darkness at 37° C. for 15 minutes. The stop solution was added to each well by 50 μl each to stop the reaction, and the amount of HBeAg was measured by measuring the absorbance (optical density, O.D.) level in the 450 nm wavelength band.

Row | SMILES | relative fluorescence intensity compared to Comparative Example 1 (LCA) [1] | effect of inhibiting the binding between PreS1 and NTCP expressing cell lines by treatment concentration ([1]; 0.2 μM, 2 μM, 10 μM, 50 μM, 20 nM PreS1) | HBeAg absorbance level relative to the negative control group (Mock) (HBV virus)
1 | C[C@H](CCC(=O)N[C@@H](CS)C(=O)O)[C@H]1CC[C@H]2[C@@H]3CC[C@@H]4C[C@H](O)CC[C@]4(C)[C@H]3CC[C@]12C [Example 40, (R)-2-((R)-4-((3R,5R,8R,9S,10S,13R,14S,17R)-3-hydroxy-10,13-dimethyl-hexadecahydro-1H-cyclopenta[a]phenanthren-17-yl)pentanamido)-3-mercaptopropanoic acid] | low and lower | – | –
2 | C[C@H](CCC(=O)N[C@@H](Cc1cnc[nH]1)C(=O)O)[C@H]1CC[C@H]2[C@@H]3CC[C@@H]4C[C@H](O)CC[C@]4(C)[C@H]3CC[C@]12C [Example 43, (S)-2-((R)-4-((3R,5R,8R,9S,10S,13R,14S,17R)-3-hydroxy-10,13-dimethyl-hexadecahydro-1H-cyclopenta[a]phenanthren-17-yl)pentanamido)-3-(1H-imidazol-5-yl)propanoic acid] | low | – | –
3 | C[C@H](NC(=O)CC[C@@H](C)[C@H]1CC[C@H]2[C@@H]3CC[C@@H]4C[C@H](O)CC[C@]4(C)[C@H]3CC[C@]12C)C(=O)O [Example 46, (S)-2-((R)-4-((3R,5R,8R,9S,10S,13R,14S,17R)-3-hydroxy-10,13-dimethyl-hexadecahydro-1H-cyclopenta[a]phenanthren-17-yl)pentanamido)-3-propanoic acid] | low | – | –
4 | CC(C)C[C@H](NC(=O)CC[C@@H](C)[C@H]1CC[C@H]2[C@@H]3CC[C@@H]4C[C@H](O)CC[C@]4(C)[C@H]3CC[C@]12C)C(=O)O [Example 47] | low and lower | – | –
5 | CSCC[C@H](NC(=O)CC[C@@H](C)[C@H]1CC[C@H]2[C@@H]3CC[C@@H]4C[C@H](O)CC[C@]4(C)[C@H]3CC[C@]12C)C(=O)O [Example 48, (S)-2-((R)-4-((3R,5R,8R,9S,10S,13R,14S,17R)-3-hydroxy-10,13-dimethyl-hexadecahydro-1H-cyclopenta[a]phenanthren-17-yl)pentanamido)-4-(methylthio)butanoic acid] | low and lower | – | –
6 | C[C@H](CCC(=O)N[C@@H](Cc1ccccc1)C(=O)O)[C@H]1CC[C@H]2[C@@H]3CC[C@@H]4C[C@H](O)CC[C@]4(C)[C@H]3CC[C@]12C [Example 49, (S)-2-((R)-4-((3R,5R,8R,9S,10S,13R,14S,17R)-3-hydroxy-10,13-dimethyl-hexadecahydro-1H-cyclopenta[a]phenanthren-17-yl)pentanamido)-3-phenylpropanoic acid] | low | – | –
7 | C[C@H](CCC(=O)N[C@@H](Cc1c[nH]c2ccccc12)C(=O)O)[C@H]1CC[C@H]2[C@@H]3CC[C@@H]4C[C@H](O)CC[C@]4(C)[C@H]3CC[C@]12C [Example 50, (S)-2-((R)-4-((3R,5R,8R,9S,10S,13R,14S,17R)-3-hydroxy-10,13-dimethyl-hexadecahydro-1H-cyclopenta[a]phenanthren-17-yl)pentanamido)-3-(1H-indol-3-yl)propanoic acid] | low and lower | concentration dependent | –
8 | C[C@H](CCC(=O)N[C@@H](CO)C(=O)O)[C@H]1CC[C@H]2[C@@H]3CC[C@@H]4C[C@H](O)CC[C@]4(C)[C@H]3CC[C@]12C [Example 51, (S)-3-hydroxy-2-((R)-4-((3R,5R,8R,9S,10S,13R,14S,17R)-3-hydroxy-10,13-dimethyl-hexadecahydro-1H-cyclopenta[a]phenanthren-17-yl)pentanamido)propanoic acid] | low | – | relatively lower
9 | C[C@H](CCC(=O)N[C@@H](CCCCN)C(=O)O)[C@H]1CC[C@H]2[C@@H]3CC[C@@H]4C[C@H](O)CC[C@]4(C)[C@H]3CC[C@]12C [Example 56, (S)-6-amino-2-((R)-4-((3R,5R,8R,9S,10S,13R,14S,17R)-3-hydroxy-10,13-dimethyl-hexadecahydro-1H-cyclopenta[a]phenanthren-17-yl)pentanamido)hexanoic acid] | low | – | –
